Assay results as given in the OPERA property sets (Mansouri et al. 2018).

Conditions: for log10 BCF / log10 biotransformation half-life (days): fish

Structure (SMILES) | melting point [°C] | boiling point [°C] | also measured
NS(=O)(=O)c1cc(C(=O)O)ccc1Cl | 257 | – | –
O=C(Cl)c1ccc(Cl)cc1 | 16 | 222 | –
Nc1c([N+](=O)[O-])cccc1[N+](=O)[O-] | 142 | – | –
Clc1ccccc1-c1ccc(Cl)c(Cl)c1Cl | – | – | log10 Henry constant (atm·m³/mol): -3.85
CC(O)CNC1CCCCC1 (stereo unspecified) | – | – | log10 vapour pressure (mmHg): -1.8
CC[C@H]1C[N@@]2CC[C@H]1C[C@H]2[C@H](O)c1ccnc2ccc(OC)cc12 | 170 | – | –
N#CC1CC2C=CC1C2 (stereo unspecified) | 13 | – | –
CC(=O)c1ccc(C(F)(F)F)cc1 | 31 | – | –
O=C1CCC(=O)N1 | 126 | 288 | log10 vapour pressure (mmHg): -4.12
OCCCCCCCO | 22.5 | 262 | –
CCCCC(C)(C)C | -121 | – | log10 biodegradation half-life (days): 0.602; log10 vapour pressure (mmHg): 1.53
Cc1ccc(Cc2ccc(C)cc2)cc1 | 28 | 286 | –
CC(C)(C)C(=O)CC(=O)C(F)(F)C(F)(F)C(F)(F)F | 38 | – | –
CC/C(=C(/CC)c1ccc(OC)cc1)c1ccc(OC)cc1 | 124 | – | –
C=CC1=CCCCC1 | – | 145 | –
CC(=O)OCCO | – | 188 | –
Cc1ccc(C)c(O)c1C | 58 | 226 | log10 vapour pressure (mmHg): -1.46; ready biodegradability: not readily biodegradable
OCC(F)(F)F | -43.5 | 74 | log10 Henry constant (atm·m³/mol): -4.76; log10 vapour pressure (mmHg): 1.85
CC(C)C(=O)OCCc1ccccc1 | – | 250 | –
CC(=O)OC(C)=O | -73 | 140 | log10 vapour pressure (mmHg): 0.708
CCCCOC(=O)C(=O)OCCCC | -30.5 | 241 | –
N=C(NCCCCCCNC(=N)NC(=N)Nc1ccc(Cl)cc1)NC(=N)Nc1ccc(Cl)cc1 | 134 | – | –
c1ccc(-c2ccccc2-c2ccccc2)cc1 | 56.2 | 332 | log10 vapour pressure (mmHg): -3.6; log10 BCF: 3.48; log10 biotransformation half-life (days): 0.86
Cc1ccc(F)cc1 | -56 | 117 | log10 vapour pressure (mmHg): 1.32
Oc1ccc(S)cc1 | 29.5 | – | –
C=C1C2CCC3C(CCC4C35CCC[C@]4(C)CN3CCO[C@H]35)(C2)[C@H]1O (stereo partly specified) | 120 | – | –

Structure (SMILES) | melting point [°C] | boiling point [°C] | also measured
CCCCCCCCCC(=O)N(CCO)CCO | – | – | ready biodegradability: readily biodegradable
CC(C)CSCC(C)C | -106 | 171 | –
CCO[Si](C)(C)OCC | -87 | 114 | log10 vapour pressure (mmHg): 1.3
C=C=C(C)CC | – | 70 | –
OC(COc1ccccc1)COc1ccccc1 | 81.5 | – | –
NC(=O)c1cccc(Br)c1 | 155 | – | –
C#CCCCCCCCCCCCCCC | 15 | 284 | –
CC(C)CC=O | -51 | 92.5 | log10 vapour pressure (mmHg): 1.7
C[C@]12COC(=O)C[C@@H]1CC[C@@H]1[C@@H]2CC[C@@]2(C)[C@H]1CC[C@]2(C)O | 236 | – | –
Cc1nc([N+](=O)[O-])cn1-c1ccc([N+](=O)[O-])cc1 | 186 | – | –
CC(=O)c1cnccn1 | 77 | – | –
Brc1ccc(Oc2cccc(Br)c2)cc1 | – | – | log10 Koa: 8.57
CCOC(=O)CC | -73.9 | 99.1 | log10 Koa: 3.15; log10 vapour pressure (mmHg): 1.55
CC1Cc2ccccc2O1 (stereo unspecified) | – | 198 | –
Cc1cccc(C(=O)c2ccccc2)c1 | – | 317 | –
CCC(C)=O | -86.6 | – | log10 Henry constant (atm·m³/mol): -4.24; log10 Koa: 2.71; log10 vapour pressure (mmHg): 1.96; ready biodegradability: readily biodegradable
CC(=O)OCC(=O)[C@@]12OC(C)(C)O[C@@H]1C[C@H]1[C@@H]3C[C@H](F)C4=CC(=O)C=C[C@]4(C)[C@@]3(F)[C@@H](O)C[C@@]12C | 309 | – | –
CN(C)c1ccc(C#N)cc1 | 74 | 318 | –
Cc1c(C(C)C)c(=O)n(-c2ccccc2)n1C | 103 | – | –
Cc1cnc2ccccc2c1C | 73.5 | 291 | –
C=CCn1c(N)cc(=O)n(CC)c1=O | 143 | – | –
CCCCCCCC/C=C/CCCCCCCC(=O)O | 29.2 | – | –
CC(Cl)c1ccccc1 (stereo unspecified) | – | – | log10 vapour pressure (mmHg): -0.187
OCCCC(F)(F)F | – | 125 | –
O=C1c2ccccc2C(=O)c2c(O)cccc21 | 194 | – | log10 vapour pressure (mmHg): -6.68; ready biodegradability: not readily biodegradable; log10 BCF: 2.25
CC(C(=O)O)(c1ccccc1)c1ccccc1 | 176 | – | –

Structure (SMILES) | melting point [°C] | boiling point [°C] | also measured
C[C@]12Cc3nonc3C[C@@H]1CC[C@@H]1[C@@H]2CC[C@@]2(C)[C@H]1CC[C@]2(C)O | 152 | – | –
FC(F)=C(F)C(F)(F)C(F)(F)C(F)(F)C(F)(F)C(F)(F)F | – | 81 | –
O=C(O)CCCCCl | 18 | 230 | –
CCCCCN(CCCCC)CCCCC | – | 242 | –
CCN1C[C@]2(COC)[C@H](O)C[C@H](OC)[C@]34C1[C@H]([C@H](OC)[C@H]23)[C@]1(O)[C@H]2[C@@H](O)[C@](O)(C[C@H]24)[C@@H](OC)[C@@H]1O | 132 | – | –
ClC1OCCOC1Cl (stereo unspecified) | 30 | – | –
CCCC(=O)C(C)(C)C | – | 147 | –
ClCCCOCCCCl | – | 216 | –
CC(=O)N(C)c1ccccc1C | 55.5 | 260 | –
CCCCCCCCCCC=CCCCCCCCC(=O)O | 23 | – | –
CC(C)COCC(C)O (stereo unspecified) | – | 165 | log10 vapour pressure (mmHg): 0.114
C=Cc1ccco1 | -94 | 99.5 | –
c1ccc2cc3c(cc2c1)-c1cccc2cccc-3c12 | 217 | 480 | log10 Henry constant (atm·m³/mol): -6.23; log10 Koc (L/kg): 4.34; log10 biodegradation half-life (days): 2.55; log10 vapour pressure (mmHg): -9.02; ready biodegradability: not readily biodegradable; log10 biotransformation half-life (days): -0.06
CCCCCCCCCCCCCCCCCCC1CO1 (stereo unspecified) | – | – | ready biodegradability: readily biodegradable
O=C1CCCCCCCCCCCCCCO1 | 32 | – | –
CCOc1ccc(Cl)cc1 | 21 | 213 | –
CCCCCCCOO | 35.5 | – | –
CCCCCCCCCCCCCCCC(=O)OCC | 24 | – | log10 vapour pressure (mmHg): -4.63
CCCCC(C)CCCC | -87.7 | 165 | –
BrCCCc1ccccc1 | – | 220 | –
CCCC[Si]1(C)O[Si](C)(CCCC)O[Si](C)(CCCC)O[Si](C)(CCCC)O1 (stereo unspecified) | – | 291 | –
O=Cc1ccc(O)cc1 | 117 | 310 | log10 Henry constant (atm·m³/mol): -9.29; log10 vapour pressure (mmHg): -3.95; ready biodegradability: readily biodegradable
Nc1cn[nH]c1 | 81 | – | –
O=C(O)C1CC=CCC1C(=O)O (stereo unspecified) | – | – | ready biodegradability: not readily biodegradable; log10 BCF: 0.3; log10 biotransformation half-life (days): -0.57
c1cc2c(cn1)CCCC2 | 146 | 218 | –
O=C(O)c1c(F)cccc1Cl | 160 | – | –

Structure (SMILES) | melting point [°C] | boiling point [°C] | also measured
CCCCCCCCCN | -1 | 202 | log10 vapour pressure (mmHg): -0.556
CCC#CCCCC | -104 | 133 | –
O=C(NNc1ccccc1)NNc1ccccc1 | 170 | – | –
CCCCCCCCCCCCCCCCCCOC(C)=O | 34.5 | – | –
CCC/C=C/CCCCCC | -80.3 | 193 | –
Cc1c(C)c(C)c(C(=O)O)c(C)c1C | 210 | – | –
CCCB(O)O | 107 | – | –
CCCCOC(=O)c1ccccc1C(=O)OCc1ccccc1 | – | 370 | log10 Koc (L/kg): 3.72; log10 vapour pressure (mmHg): -5.08; ready biodegradability: readily biodegradable; log10 BCF: 1.21; log10 biotransformation half-life (days): -1.03
COc1ccc(N)cc1Cl | 52.5 | – | log10 Koc (L/kg): 1.93
CC(=O)c1ccc(Br)cc1 | 50.5 | 257 | –
O=Cc1cc(O)ccc1[N+](=O)[O-] | 167 | – | –
COC(=O)C(F)(F)C(F)(F)C(F)(F)C(F)(F)C(F)(F)C(F)(F)C(F)(F)F | – | 158 | –
O=C(CCl)OC(=O)CCl | 46 | 203 | log10 vapour pressure (mmHg): -1.43
CCOC(=O)C(C(=O)OCC)c1ccccc1 | 16.5 | – | –
O=C1CCCC1C1CCCC1 (stereo unspecified) | -13 | 232 | –
CCN(CC)C(=O)N(CC)CC | – | 209 | –
CC(C)=C(C)C | -74.6 | 73.3 | log10 vapour pressure (mmHg): 2.1
CC#N | -43.8 | 81.6 | log10 Henry constant (atm·m³/mol): -4.46; log10 Koa: 2.31; log10 vapour pressure (mmHg): 1.95; ready biodegradability: readily biodegradable
CC(C)(C)OC(=O)C(F)(F)F | – | 83 | –
CCC(=O)O | -20.7 | 141 | log10 Henry constant (atm·m³/mol): -6.35; log10 vapour pressure (mmHg): 0.548; ready biodegradability: readily biodegradable
IC(I)=C(I)I | 187 | – | –
COC(=O)C1(S(=O)(=O)c2ccc(C)cc2)CC1 | 97.2 | – | –
CC(C)(C)N=C=S | 10.5 | 140 | –
Clc1ccc(Oc2ccc(Cl)cc2Cl)cc1 | – | – | log10 vapour pressure (mmHg): -3.82; log10 biotransformation half-life (days): 1.72
CC1CC(=O)C(C)(C)C1 (stereo unspecified) | -40.6 | 158 | –
CCOC(=O)C(C#N)=Cc1ccccc1 | 51 | – | –

Structure (SMILES) | melting point [°C] | boiling point [°C] | also measured
O=C(O)[C@@H]1CCc2ccccc2C1 | 97.7 | – | –
OCCc1ccc(O)cc1 | 90 | – | –
COP(=S)(OC)Oc1cc(Cl)c(Cl)cc1Cl | 41 | – | log10 vapour pressure (mmHg): -4.12; log10 BCF: 3.58; log10 biotransformation half-life (days): 0.95
Clc1cc(Cl)nc(Cl)n1 | 22.5 | 212 | –
C=CF | -160 | -72 | log10 vapour pressure (mmHg): 4.3
Clc1ccc(-c2c(Cl)cc(Cl)cc2Cl)cc1 | 65 | – | –
O=C(CCNNC(=O)c1ccncc1)NCc1ccccc1 | 152 | – | –
O=C(O)CCCCCCCCC(=O)O | 131 | – | log10 vapour pressure (mmHg): -7.26; ready biodegradability: readily biodegradable
CC=C(C(=O)OC)C(=O)OC | – | – | ready biodegradability: readily biodegradable
C=CC(=O)OCC(CC)CCCC (stereo unspecified) | -90 | 214 | log10 vapour pressure (mmHg): -0.75; ready biodegradability: readily biodegradable
CCC(=O)OC(C)C | – | 110 | log10 vapour pressure (mmHg): 1.35
CCOCOc1ccc(C(=O)Nc2cccc(Cl)c2Cl)cc1 | 92.5 | – | –
CCCC1CC1 | – | 69.1 | –
CCN1CCOCC1 | -64 | 138 | log10 vapour pressure (mmHg): 0.702; ready biodegradability: not readily biodegradable
CCOC(=O)c1ccco1 | 34.5 | 197 | log10 vapour pressure (mmHg): -0.432
CC(C)C(O)C(C)C | – | 139 | log10 vapour pressure (mmHg): 0.477
O=S(=O)(Cl)c1ccc(F)cc1 | 30 | – | –
C[C@]12CCC(=O)C=C1CC[C@@H]1[C@@H]2CC[C@]2(C)C(=O)CC[C@@H]12 | 158 | – | –
O=c1n(CCO)c(=O)n(CCO)c(=O)n1CCO | – | – | ready biodegradability: not readily biodegradable; log10 BCF: 0.2
Cc1coc(C)c1 | – | 94 | –
C=C(CC(=O)OCC)C(=O)OCC | 58.5 | 228 | –
CC(C)(C)NCCNC(C)(C)C | – | 197 | log10 vapour pressure (mmHg): -0.575
